8 compounds from patent US3950387A, “Cysteine derivatives” (Recherches Pharmaceutiques et Scientifiques, priority 1972, dated 1976) can be followed below.

Where a name gives a salt, the structure may show the parent alone.

Series [1] can be described thus: Toxicity: maximum tolerated dose in the mouse, oral route. The conditions noted are these: in vivo.
The subject of series [2] is atheromatic deposits in the aorta. Description: Effect on atheromatic deposits in the aorta (visual examination, scale 0 to 5) in cholesterol-fed rabbits. The series is classed as in vivo, rabbit (male albino Bouscat). The settings on record: for Activity ranking (anti-atheromatic): conclusion over both tests in rabbits; for Extent of atheromatic deposit: rabbit. An excerpt:
(§1) 2. Effect on atheromatic deposits in the aorta and on plasma cholesterol in the rabbit
(§2) In order to create atheromatic lesions experimentally, male albino Bouscat rabbits having an average weight of 2.5 kg are fed on a Provende UAR rabbit diet plus 1 or 2% of cholesterol.
(§3) At the end of 11 to 12 weeks, the animals are sacrificed by having their carotid arteries cut after being anaesthetised with Nembutal and the aorta is removed from lowermost point to the iliac fork, cut open longitudinally and spread out upon a cork board. After fixing with formaldehyde and staining with a 2% aqueous solution of acid fuchsin, pearly white atheromatic spots are apparent against the red background which enables the extent of the deposit to be evaluated quantitatively on a scale from 0 to 5 with 0 corresponding to an absence of lesions and 5 to diffuse lipid deposits covering the whole of the endothelium.
(§4) In a first test, 60 male rabbits each weighing 2.5 kg are fed on the diet detailed below:
(§5) 5 weeks : diet containing 2% of cholesterol
(§6) 3 weeks : diet containing 1% of cholesterol
(§7) From the beginning the animals are divided into 6 batches of 10 animals each which respectively receive, for the whole duration of the diet, the following products for 5 days per week by the digestive route using an oesophagal probe:
(§8) All the products are administered in suspension in the same volume of gum arabic (5 ml).
(§9) At the end of 12 weeks, visual examination of the atheromatic lesions in the aorta gave the results shown in Table II, the numerical data giving the average extent of deposit in each batch.
(§10) In a second test, using the same experimental method, the two following derivatives were studied in the doses indicated below: […]

The subject of series [3] is plasma cholesterol. Description: Plasma cholesterol in cholesterol-fed rabbits (Pearson method, Technicon auto-analyser). The series is classed as in vivo, rabbit (male albino Bouscat). The settings on record: rabbit. The protocol:
as §1, §2
Moreover, a check on the plasma cholesterol is carried out at regular intervals during the test using the Pearson method as adopted to the Technicon auto-analyser by Boy, Bonnafe and Mazet (Applicant's own method).
as §4, §5, §6, §7, §8, §9, §10

For series [4], the system named is aortic cholesterol. Description: Aortic cholesterol in cholesterol-fed rabbits (Folch extraction, Liebermann-Burchard method). It is filed as in vivo, rabbit (male albino Bouscat). The settings on record: rabbit.
Source text: as §1, §2, §3
After the inside layers of the wall of the aorta have been separated, all the lipids are extracted by the method of Folch et at. The amount of cholesterol is then determined using the Liebermann-Burchard method.
as §4, §5, §6, §7, §8, §9, §10

The nature of series [5]: Solubility in the standard solvents. It is filed as physicochemical. The settings on record: all the standard solvents.
The mark [6] stands for this setting: first test, 200 mg/kg oral (oesophagal probe), 5 days per week, 12 weeks, scale 0 (no lesions) to 5 (diffuse deposits), batch average, diet only 3.5.
The mark [7] stands for this setting: first test, 200 mg/kg oral (oesophagal probe), 5 days per week, 12 weeks, diet only 1.47.
Setting [8] is: first test, 200 mg/kg oral (oesophagal probe), 5 days per week, 12 weeks, diet only 20.43.
Setting [9] is: second test, 50 mg/kg, same experimental method, scale 0 to 5, diet only 4.
[10] abbreviates: second test, 50 mg/kg, same experimental method, diet only 2.5.
The mark [11] stands for this setting: second test, 50 mg/kg, same experimental method, diet only 22.1.

By MTD is commonly meant the highest dose tested that stayed within the study's limit of toxicity. Higher therefore signals better tolerability. Consider `CC(C)=CCC/C(C)=C/CSC[C@H](N)C(=O)O` [LJ 558, S-geranylcysteine], for which the MTD in series [1] was 8000 mg/kg.

For the compound `N[C@@H](CSCc1cccnc1)C(=O)O` [LJ 546, L β-[(pyridyl-3)methylthio]α-amino propanoic acid], the “Activity ranking (anti-atheromatic)” value in series [2] is “the most active”. Also, the “Extent of atheromatic deposit” value in series [2] (setting [6]) amounted to 1.85. The compound also returned a Plasma cholesterol in series [3] (setting [7]) of 0.99 g/L. The Aortic cholesterol in series [4] (setting [8]) amounted to 10.72 mg/kg. Besides, in series [1], the MTD was found to be 9000 mg/kg.

Regarding `CC(=Cc1ccccc1)CCSC[C@H](N)C(=O)O` [LJ 540, L β-(4-phenyl-3-methylbuten-3-ylthio) α-aminopropanoic acid], the “Extent of atheromatic deposit” value in series [2] (setting [6]) amounted to 2.60. Also, in series [3] (setting [7]), the Plasma cholesterol was found to be 1.29 g/L. Further, in series [4] (setting [8]), the Aortic cholesterol turned out to be 15.00 mg/kg. In addition, the MTD in series [1] was not below 10000 mg/kg.

In the case of `C=CCSC[C@H](N)C(=O)OCC` [LJ 565, Ethyl L β-(propen-2-ylthio) α-amino propanoate hydrochloride], in series [2], the “Activity ranking (anti-atheromatic)” value is “the most active”. Also, the “Extent of atheromatic deposit” value in series [2] (setting [9]) worked out at 2.3. The compound further came in with a Plasma cholesterol in series [3] (setting [10]) of 2.1 g/L. This compound also registered an Aortic cholesterol in series [4] (setting [11]) of 15 mg/kg. In addition, the maximum tolerated dose (MTD) in series [1] amounted to 1500 mg/kg.

Take `N[C@@H](CSCC=Cc1ccccc1)C(=O)O` [LJ 536, L β-(3-phenyl-propen-2-ylthio) α-amino propanoic acid]: in series [2] (setting [6]), the “Extent of atheromatic deposit” value came to 2.05. For the same compound, the Plasma cholesterol in series [3] (setting [7]) turned out to be 1.2 g/L. Besides, the Aortic cholesterol in series [4] (setting [8]) stood at 12.21 mg/kg. The MTD in series [1] stood at 4000 mg/kg.

On to `CC(SC[C@H](N)C(=O)O)c1ccc(Cl)cc1` (stereo partly drawn) [LJ 550, L β-[1-(p-chlorophenyl)ethylthio]α-amino propanoic acid], for which, in series [2], the “Activity ranking (anti-atheromatic)” value is on record as “the most active”. Further, the “Extent of atheromatic deposit” value in series [2] (setting [6]) came to 2. In series [3] (setting [7]), this compound came in with a Plasma cholesterol of 1.17 g/L. In addition, the Aortic cholesterol in series [4] (setting [8]) was 11.90 mg/kg. For the same compound, the Solubility entry in series [5] is recorded as “practically insoluble in all the standard solvents”. In series [1], the MTD worked out at 4000 mg/kg.

With `C=CCSC[C@H](N)C(=O)OC(C)C` [LJ 566, Isopropyl L β-(propen-2-ylthio) α-aminopropanoate hydrochloride], the “Activity ranking (anti-atheromatic)” value in series [2] is recorded as “the most active”. Moreover, the “Extent of atheromatic deposit” value in series [2] (setting [9]) was found to be 2.8. For the same compound, the Plasma cholesterol in series [3] (setting [10]) turned out to be 2.3 g/L. The same compound came in with an Aortic cholesterol in series [4] (setting [11]) of 17.3 mg/kg. In series [1], this compound returned an MTD of 1500 mg/kg.

As to `C=CCSC[C@H](NC(=O)CC[C@H](N)C(=O)O)C(=O)NCC(=O)O` [LJ 545, L γ-glutamyl-S-allylcysteinyl glycine], in series [2] (setting [6]), the “Extent of atheromatic deposit” value was 2.70. The Plasma cholesterol in series [3] (setting [7]) was found to be 1.36 g/L. The compound also displayed an Aortic cholesterol in series [4] (setting [8]) of 14.38 mg/kg. In addition, the maximal tolerated dose (MTD) in series [1] is not below 10000 mg/kg.
